Test results taken from a melting point compilation (Tetko et al.; mined from patent text by program, amines drawn as free bases though some values may be those of a salt).

melting point | Structure (SMILES)
133 to 134 °C | CCOC(=O)c1cc2c(C)cccc2n1CCC(=O)O
147 to 148 °C | Cc1nc(-c2ccc3c(c2)OCC32C(=O)N(Cc3ccccn3)c3ccccc32)no1 (centres undefined)
131 to 132 °C | O=C(NCc1cccs1)n1cc(F)c(=O)[nH]c1=O
145 to 158 °C | O=c1n(CCO)c2ccccc2n1CCO
89 °C | COc1ccc(-c2nc(C(=O)Cl)c(C)o2)cc1
184 °C | O[C@@H]1c2ccccc2CC[C@H]1N1CCC(O)(c2ccccc2)CC1 (relative stereo)
189 to 190 °C | NCCC1Cc2ccc(C3=NNC(=O)CC3)cc2C1 (centres undefined)
196 °C | CC(=O)NC(c1ccc(F)cc1)(c1cc2c3c(c1)c(-c1cccc(Cl)c1)cc(=O)n3CC2)c1nncn1C (centres undefined)
250 °C | CCCC(=O)Nc1n[nH]c2cc(Cl)c(Br)cc12
35 to 36 °C | CCCCCOc1ccc(CO)cc1OC(C)=O
> 300 °C | O=C(O)c1cn(C2COC2)c2c(Cl)c(F)c(F)cc2c1=O
156 to 158 °C | CC(C)(C)C(=O)Nc1n[nH]c(C(C)(C)C)c1Cl
255 to 258 °C | O=C(O)c1cc([N+](=O)[O-])ccc1-c1ccc([N+](=O)[O-])cc1C(=O)O
113 to 115 °C | CCOC(=O)C(Cc1ccc(OCCn2c(=O)sc3cc(C(=O)C4CC4)ccc32)cc1)OCC(F)(F)F (centres undefined)
153 to 154 °C | Cn1cnc(S(=O)(=O)NCCCCCCNS(=O)(=O)c2cn(C)cn2)c1
209 °C | Cn1c(/C=C/CO)c(-c2ccccc2)c2ccccc2c1=O
186 to 189 °C | O=CN(O)C(CCO)CS(=O)(=O)c1ccc(-c2ccc(C(F)(F)F)cc2)cc1 (centres undefined)
287 to 288 °C | CS(=O)(=O)c1ccc(-c2sc(Nc3cc(Cl)cc(Cl)c3)nc2-c2ccc(F)cc2)cc1
172 to 173 °C | O=C(O)c1ccc2oc3ccccc3c2c1
125 to 129 °C | COc1ccc(Br)c(Sc2nc3c(N)nccc3n2CCCNC(C)C)c1
79 to 80 °C | CCOC(=O)c1cn(-c2ccccn2)nc1C
68.5 to 70 °C | CCOC(=O)C(CCCCCCN1C(=O)c2ccccc2C1=O)(NC(C)=O)C(=O)OCC
146 to 149 °C | COC(=O)C[C@@H](SCc1ccccc1)C(N)=O
149 °C | CCOC(=O)c1cc2ccc(F)c(C)c2[nH]1
121 to 123 °C | CC(C)(C)OC(=O)Nc1cccc(C2(O)COC2)c1

melting point | Structure (SMILES)
185 to 187 °C | CC(Oc1ccc2oc3cc(Cl)ccc3c2c1)C(N)=O (centres undefined)
135 to 138 °C | CN(C)c1cc(Oc2cccc(C(F)(F)F)c2)nc(C(=O)Nc2ccccc2)c1
158 to 165 °C | c1ccc(-c2onc3ccc(Oc4ccc5noc(-c6ccccc6)c5c4)cc23)cc1
161 to 165 °C | O=C(NCc1ncc(Cl)cc1Cl)c1c(Cl)cccc1Cl
129 to 131 °C | Fc1ccc(F)c2c(NCCc3ccc(Oc4ccnc(C(F)(F)F)c4Cl)cc3)ncnc12
185 to 186 °C | CC(CC(=O)Nc1cc(-c2ccnc3c(C(=O)c4cccs4)cnn23)ccc1F)C(F)(F)F (centres undefined)
180 to 183 °C | O=C1C=C(c2ccccc2)C(=Nc2ccccc2)N1
180 to 181 °C | CCCCc1nc2cccc(C(=O)OC)c2n1Cc1ccc(-c2ccccc2-c2nc(=S)o[nH]2)cc1
89 to 90 °C | COc1ccc2c(c1)CCN(C(C)=O)CC2
261 to 263 °C | CNC(=O)c1ccc(C=CC(=O)NCC(=O)N(C)c2ccc(C)c(CO)c2C)cc1
114 to 116 °C | CC(C)(C)OC(=O)N1CCC(C#N)(CCl)CC1
92 to 95 °C | COC(=O)c1ccccc1-c1nc2cc(CBr)ccc2o1
96 °C | FC(F)(F)c1cccc(-c2cc(C(F)(F)F)n3nccc3n2)c1
188 to 190 °C | NCC(O)COc1cccc2c1=NC(=O)N=2 (centres undefined)
220 to 222 °C | CN1C(=O)C(C(=O)Nc2ccc(Cl)cc2)S(=O)(=O)c2ccccc21 (centres undefined)
264 to 265 °C | COc1ccc(-c2nc(-c3ccc(F)cc3)c(-c3ccncc3)[nH]2)cc1
140 to 142 °C | CNCC(O)COc1cc(-c2ccc(OC)cc2)nc2cc(C)ccc12 (racemic)
90 to 92 °C | CCC(=O)N(C(=O)CC)c1c(OCc2ccccc2)cc(Br)cc1[N+](=O)[O-]
83 to 85 °C | CS(=O)(=O)OCCC(c1ccccc1)c1ccccc1
44 to 46 °C | COC(=O)CCC#Cc1ccccc1[N+](=O)[O-]
135 °C | O=[N+]([O-])c1cc(Cl)cc(C(c2cc(Cl)cc([N+](=O)[O-])c2O)C(F)(F)F)c1O
182 to 184 °C | CC(=O)c1ccc(-c2cc(N3CCCCC3)c(C#N)c3c2-c2ccccc2C3)cc1
> 250 °C | NS(=O)(=O)c1cccc(-c2cn(-c3cc(-c4ccc(C(F)(F)F)cc4)cc(C(F)(F)F)n3)cn2)c1
86 to 88 °C | COc1ccc(C2=NN(Cc3ccccc3)C(=O)[C@H]3CCCC[C@@H]23)cc1OC (relative stereo)
238 °C | CNC(=O)C1(C)NCCc2c1n(F)c1ccccc21 (centres undefined)

melting point | Structure (SMILES)
170 to 173 °C | Cn1nc(C(F)(F)F)cc1O
206 to 207 °C | O=c1[nH]ccc2c1C(c1cccc([N+](=O)[O-])c1)N=C(c1ccccc1)N2 (centres undefined)
161 to 163 °C | Cc1c(C)c2ccc(OCCCCN3CCN(c4cccc(Cl)c4Cl)CC3)nc2[nH]c1=O
97 to 99 °C | CCc1cc(CC)c(NC(=S)NC2CCCCC2)c(CC)c1
157 to 159 °C | Cc1nc(OC(C)C(=O)O)nn1-c1ccccc1 (centres undefined)
323 to 325 °C | O=C1c2cc(F)ccc2-n2c1nc1cccc(F)c1c2=O
147 to 148 °C | Oc1ccc(Nc2ccn(-c3ccccc3)n2)cc1
106 to 110 °C | CCOC(=O)C(c1c[nH]c2cccc(C(=O)OC)c12)C(C)[N+](=O)[O-] (centres undefined)
112 to 115 °C | CCCCC(=O)N(CCCOCc1ccccc1)Cc1ccc(-c2ccccc2-c2nnn[nH]2)cc1
149 to 150 °C | O=C(O)Cc1cccc(F)c1OCCCc1cn(-c2ccc(C(F)(F)F)cn2)nc1C1CCCCC1
94 to 96 °C | CCCCCCCC1=CC(=O)N(Cc2ccccc2)C1(O)CBr (centres undefined)
186 to 187 °C | CC(C)SC(=O)N1CCN(c2ccc3ncc(Br)n3n2)CC1
230 to 232 °C | CC(=O)c1ccc2c(c1)CCc1ccc(C(=O)O)cc1S2
159 to 161 °C | CCCCOCCOc1ccc(-c2ccc3c(c2)C=C(C(=O)Nc2ccc(/C(Cc4nccn4CCC)=N/OC)cc2)CCN3CC(C)C)cc1
104 to 106 °C | CN(C)CCCN1c2ccccc2C(c2ccccc2Cl)=Nc2cccnc21
173 to 175 °C | COC[C@@H]1Cc2ccccc2N1C(=O)OC(C)(C)C
208 to 210 °C | O=C1CCC(c2ccc(N=C(CCc3ccccc3)c3ccc(O)cc3O)cc2)=NN1
293 °C | O=C(CCc1ccccc1)Nc1cccc(C(=O)NN=C2C(=O)Nc3ccc(I)cc32)c1
148 to 150 °C | CCc1n[nH]c(CC)c1CCCCCCOc1cc(Cl)c(OC)cc1Cl
61 to 62 °C | N#CCOc1ccc(Cl)c(Cl)c1
218 to 220 °C | CC(=O)Nc1ccnc(-c2ccncc2)n1
136 to 141 °C | CONC(=O)C(Cl)=Cc1cc(-n2c(=O)cc(C(F)(F)F)n(C)c2=O)ccc1Cl
93 to 94 °C | O=C1C(Cl)C(CCl)CN1c1cccc(Cl)c1 (centres undefined)
221 to 229 °C | COc1cn(-c2ccc(-n3nccc3O)cc2F)nc(-c2ccnn2-c2ccccc2)c1=O
219 to 220 °C | CC(C)(C)C(NC(=O)CCc1ccccc1)Nc1c(Nc2cccnc2)c(=O)c1=O (centres undefined)

melting point | Structure (SMILES)
122 to 123 °C | CCC(C)Nc1nc2ccccc2c(=O)o1 (centres undefined)
143 °C | CC(CCc1ccccc1)Nc1nc(Cl)nc(NS(C)(=O)=O)n1 (centres undefined)
158 to 160 °C | CC(=O)OCCn1c(C)nc2ccccc2c1=O
196 to 199 °C | COc1ccccc1N1CCN(CCCNC(=O)c2cccc3c(=O)c(O)c(-c4ccccc4)oc23)CC1
> 300 °C | Nc1nc(N)c2nc(-c3cccc(O)c3)cnc2n1
136 to 137 °C | CCC(CC)C(NS(=O)(=O)c1ccc(Cl)s1)c1ncnn1Cc1ccc(OC)cc1 (centres undefined)
88 to 91 °C | COC(=O)COC(=O)C(Cl)=Cc1cc(-n2ncc(C(F)(F)F)c(C)c2=O)c(F)cc1Cl
165 to 166 °C | COc1ccc2nc(C)cc(Oc3cc(-c4ccc(C(F)(F)F)cc4)ncn3)c2c1
119 to 120 °C | Cc1cc(F)ccc1Nc1nc(N(C)c2ccccc2)c2cc(OCCCN3CCOCC3)ccc2n1
136 to 137 °C | CNCCNc1noc2cc(OC)ccc12
173 to 175 °C | CCOC(=O)CCCOc1ccc(C(=O)Nc2ccccc2Sc2ccccc2-c2nnn[nH]2)cc1
156 to 159 °C | CO[C@@H](Cc1ccc(OCCc2nc(-c3ccc(-c4ccccc4)cc3)oc2C)c2ccccc12)C(=O)O
222 to 224 °C | Cc1cccc(-c2nc(N)sc2-c2ccnc(-c3ccc(OC(F)(F)F)cc3)c2)n1
44 °C | COC(=O)CCCCCCCCC=CCCCCCCCCC(=O)OC
129 to 131 °C | O=C(O)C=Cc1ccccc1NC(=O)c1ccc(OCCCCc2ccccc2)cc1
276 to 278 °C | COc1cc2c(Nc3cc(O)c(C)cc3F)ncnc2cc1O
84 to 85 °C | COC(=O)c1ccc([C@H]2CC[C@H](C=O)CC2)cc1
145 to 160 °C | CNC(=O)c1cccc(Cl)c1Nc1nc(Nc2ccc3c(c2)CCCC(=O)N3C)ncc1Cl
176 to 178 °C | Cc1ncnc(-c2cc(O)c(Cl)cc2F)c1C
144 to 146 °C | N#CC(Sc1ccc(Cl)cc1)=C1SCCN1c1ccccc1
201 °C | Cc1cc(-c2cc(C(F)(F)F)n3ncc(C(=O)Nc4cccc(S(=O)(=O)NC5CC5)c4)c3n2)ccc1C(F)(F)F
68 to 72 °C | CCCc1c(OCC(O)COc2ccc3c(c2CCC)OC(C(=O)O)CC3=O)ccc(C(C)=O)c1O (centres undefined)
175 to 179 °C | CC1(C)CCC(C)(C)c2cc(C(=O)CSc3ccc(C(=O)O)cc3)ccc21

Structure (SMILES) | melting point
O=C1CN(c2ccc(Cc3ccccc3)cc2)C(=S)N1c1ccc([N+](=O)[O-])cc1 | 209 °C
